# Active and inactive are the calls of the source.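 How the source made its calls: active means viability at the highest tested concentration below 50%; inactive means the rest.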
# Tested on: K562 vector control cells viability, CellTiter-Glo, 18 h
# Experiment: viability loss, cell-based, CellTiter-Glo luminescence, cherry picks 01-02, cytotoxicity control for ABCB6 inhibitor project, dose response (AID 651655)
# Details: not given
row,Structure (SMILES),EC50 [nM]
1,CCOc1ccccc1NC(=O)c1nc(S(=O)(=O)Cc2cccc(C)c2)ncc1Cl,715
2,CCc1ccc(NC(=O)c2nc(S(=O)(=O)Cc3ccccc3)ncc2Cl)cc1,390
3,CC(=O)Nc1ccc(NC(=O)c2nc(S(=O)(=O)Cc3ccccc3)ncc2Cl)cc1,911
4,Cc1cccc(C)c1NC(=O)c1nc(S(=O)(=O)Cc2ccccc2)ncc1Cl,979
5,Cc1ccc(CS(=O)(=O)c2ncc(Cl)c(C(=O)Nc3ccc(OC(F)F)cc3)n2)cc1,741
6,CC(=O)Nc1ccc(NC(=O)c2nc(S(=O)(=O)Cc3cccc(C)c3)ncc2Cl)cc1,660
7,Cc1ccc(CS(=O)(=O)c2ncc(Cl)c(C(=O)Nc3nnc(C(C)C)s3)n2)cc1,596
8,Cc1nnc(NC(=O)c2nc(S(=O)(=O)Cc3ccccc3)ncc2Cl)s1,2050
9,CCOc1ccccc1NC(=O)c1nc(S(=O)(=O)Cc2ccccc2)ncc1Cl,2200
10,Cc1cccc(CS(=O)(=O)c2ncc(Cl)c(C(=O)Nc3nnc(C(C)C)s3)n2)c1,627
11,Cc1ccc(NC(=O)c2nc(S(=O)(=O)Cc3ccccc3C)ncc2Cl)cc1C,758
12,CCOC(=O)c1ccc(NC(=O)c2nc(S(=O)(=O)Cc3ccccc3)ncc2Cl)cc1,1930

# Tested on: not listed separately
# Experiment: as above
# Details: K562 vector control cells viability, CellTiter-Glo, 18 h; at 100 µM (top of the series)
row,Structure (SMILES),viability
1,Cc1ccccc1CS(=O)(=O)c1ncc(Cl)c(C(=O)Nc2ccc(F)cc2)n1,61.6% (inactive)
2,O=C(Nc1ccc(F)cc1)c1nc(S(=O)(=O)Cc2ccccc2)ncc1Cl,81.6% (inactive)
3,COC(=O)c1ccc(NC(=O)c2nc(S(=O)(=O)Cc3cccc(C)c3)ncc2Cl)cc1,82.7% (inactive)
4,CCN(CC)S(=O)(=O)c1cccc(-n2c(O)c(C=Nc3ccccc3C(=O)O)c3ccccc3c2=O)c1,79% (inactive)
5,CCCc1nnc(NC(=O)c2nc(S(=O)(=O)Cc3cccc(C)c3)ncc2Cl)s1,71.2% (inactive)
6,C[N+](C)(C)CC1CCCC(C[N+](C)(C)C)C1=O (stereo not given),67.5% (inactive)
7,Cc1cccc(CS(=O)(=O)c2ncc(Cl)c(C(=O)Nc3ccc(F)cc3)n2)c1,90.2% (inactive)
8,Cc1ccc(NC(=O)c2nc(S(=O)(=O)Cc3ccccc3)ncc2Cl)cc1,80.4% (inactive)

# Reference: PubChem BioAssay AID651655 (NMMLSC, 2012)
